The conditions of this data set: for mass density: 298.15 K, 101.33 kPa, Liquid.

± gives the expanded uncertainty stated by the source.

On to `CCCCCCCC` [octane], for which the mass density is 698.636 ± 1.3 kg/m3.
The same measure, in the same setting: next, `CCCCCCCCC` [nonane]: 714.064 ± 1.3 kg/m3.
For the molecule `O=C1CCCCCN1` [1-aza-2-cycloheptanone], where the note is “Crystal, visual observation”, the Normal melting temperature is 69.06 ± 0.39 °C.
For the molecule `CC(C)CC(C)(C)C` [2,2,4-trimethylpentane], the mass density was found to be 687.757 ± 0.84 kg/m3.
On the same count and under the same terms, the figure for `CCCCCCC` [heptane] is 679.627 ± 0.85 kg/m3.
With `CCCCCCCCCC` [decane], the mass density was 726.357 ± 1.2 kg/m3.

One may read the mass density as mass per unit of volume.
